Read-outs that look alike come from different tables or passages of the source.
Target: human cytidine deaminase (CDA) (Homo sapiens, UniProt P32320, Y33G)
Assay: biochemical
Assay type: biochemical

Sequence of human cytidine deaminase (CDA) (P32320 whole entry Y33G): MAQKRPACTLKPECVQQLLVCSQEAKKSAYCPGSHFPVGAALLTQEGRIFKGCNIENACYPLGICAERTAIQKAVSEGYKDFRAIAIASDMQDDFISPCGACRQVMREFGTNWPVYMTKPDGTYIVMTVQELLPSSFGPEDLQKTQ

Row | Ki (read-out: Y33G) [nM] | Ki [nM] | Molecule
1 | 3400 |  | 6-[3,5(cytidyl)acryloylamino] hexanoic acid [CV6]
2 |  | 200 | O=c1ncc(F)cn1[C@@H]1O[C@H](CO)[C@@H](O)[C@H]1O [5-FZEB, 5-Fluorozebularine]

Reference: article PMC3020594 (International journal of biological macromolecules, 2010)
